Reference: patent US20240228489A1, “POSITIVE ALLOSTERIC MODULATORS OF THE MUSCARINIC ACETYLCHOLINE RECEPTOR M1” (Vanderbilt University, priority 2021, published 2024)

How the values were obtained:
human mAChR M1 [1] = molecular target: T1, human mAChR M1 (Homo sapiens, UniProt P11229); test: mAChR M1 cell-based functional assay (calcium mobilization), PAM mode: increase in the EC20 acetylcholine response
T1 sequence (P11229 1-460): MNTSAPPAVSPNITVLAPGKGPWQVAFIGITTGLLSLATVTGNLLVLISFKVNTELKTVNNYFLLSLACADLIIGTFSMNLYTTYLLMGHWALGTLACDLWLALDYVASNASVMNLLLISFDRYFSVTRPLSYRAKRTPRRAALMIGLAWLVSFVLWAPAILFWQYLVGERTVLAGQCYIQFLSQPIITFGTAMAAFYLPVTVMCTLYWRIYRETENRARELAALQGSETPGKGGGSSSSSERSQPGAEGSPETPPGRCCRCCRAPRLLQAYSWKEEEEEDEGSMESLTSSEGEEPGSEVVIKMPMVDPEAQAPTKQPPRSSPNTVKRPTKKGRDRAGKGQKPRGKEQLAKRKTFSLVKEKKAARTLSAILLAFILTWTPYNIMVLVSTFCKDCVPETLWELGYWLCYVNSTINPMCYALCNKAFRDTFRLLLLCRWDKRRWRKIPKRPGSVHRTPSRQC
Description: (§1) Chinese hamster ovary (CHO-K1) cells stably expressing rat (r)M1 were purchased from the American Type Culture Collection and cultured according to their indicated protocol. CHO cells stably expressing human (h)M2, hM3, and hM5 were described previously (Levey, et al., 1991); hM1 and hM4 cDNAs were purchased from Missouri S&T cDNA Resource; rM4 cDNA was provided by T. I. Bonner (National Institutes of Health, Bethesda, MD). rM2 and rM3 were cloned from a rat brain cDNA library and sequence verified. hM1, rM2, rM3, hM4, and rM4 cDNAs were used to stably transfect CHO-K1 cells purchased from the American Type Culture Collection using Lipofectamine2000. To make stable rM2, hM2, rM3, hM4, and rM4 cell lines for use in calcium mobilization assays, these cells also were stably transfected with a chimeric G-protein (Gqi5) (provided by B. R. Conklin, University of California, San Francisco) using Lipofectamine 2000. rM1, hM1, rM3, hM3, rM5, and hM5 cells were grown in Ham's F-12 medium containing 10% heat-inactivated fetal bovine serum (FBS), 20 mM HEPES, and 50 μg/mL G418 sulfate. rM2-Gqi5, hM2-Gqi5, and hM4-Gqi5 cells were grown in the same medium also containing 500 μg/mL Hygromycin B. Stable rM4-Gqi5 cells were grown in DMEM containing 10% heat-inactivated FBS, 20 mM HEPES, 400 μg/mL G418 sulfate, and 500 μg/mL Hygromycin B.
(§2) For high throughput measurement of agonist-evoked increases in intracellular calcium, CHO-K1 cells stably expressing muscarinic receptors were plated in growth medium lacking G418 and hygromycin at 15,000 cells/20 μL/well in Greiner 384-well black-walled, tissue culture (TC)-treated, clear-bottom plates (VWR). Cells were incubated overnight at 37° C. and 5% C02. The next day, cells were washed using an ELX 405 (BioTek) with four washes (80 μL) of assay buffer then aspirated to 20 μL. Next, 20 μL of 16 μM Fluo-4/acetoxymethyl ester (Invitrogen, Carlsbad, CA) prepared as a 2.3 mM stock in DMSO and mixed in a 1:1 ratio with 10% (w/v) Pluronic F-127 and diluted in assay buffer was added to the wells and the cell plates were incubated for 50 min at 37° C. and 5% C02. Dye was removed by washing with the ELX 405 (four 80 μL washes of assay buffer) then aspirated to 20 μL. Compound master plates were formatted in an 11 point CRC format (1:3 dilutions) in 100% DMSO with a starting concentration of 10 mM using the BRAVO liquid handler (Agilent). Test compound CRCs were then transferred to daughter plates (240 nL) using the Echo acoustic plate reformatter (Labcyte, Sunnyvale, CA) and then diluted into assay buffer (40 μL) to a 2× stock using a Thermo Fisher Combi (Thermo Fisher Scientific, Waltham, MA).
Calcium flux was measured using the Functional Drug Screening System (FDSS) 6000 (Hamamatsu Corporation, Tokyo, Japan) as an increase in the fluorescent static ratio. Compounds were applied to cells (20 μL, 2×) using the automated system of the FDSS 6000 at 4 s into the 300 s protocol and the data were collected at 1 Hz. At 144 s into the 300 s protocol, 10 μL of an EC20 concentration of the muscarinic receptor agonist acetylcholine was added (5×), followed by the addition of 12 μL of an EC80 concentration of acetylcholine at the 230 s time point (5×). Agonist activity was analyzed as a concentration-dependent increase in calcium mobilization upon compound addition. Emax values for agonist activity are expressed relative to the maximum for acetylcholine. Positive allosteric modulator activity was analyzed as a concentration-dependent increase in the EC20 acetylcholine response. Antagonist activity was analyzed as a concentration-dependent decrease in the EC80 acetylcholine response. Concentration-response curves were generated using a four-parameter logistical equation in XLfit curve fitting software (IDBS, Bridgewater, NJ) for Excel (Microsoft, Redmond, WA) or Prism (GraphPad Software, Inc., San Diego, CA). […]

human mAChR M1 [2] = molecular target: T1, human mAChR M1; test: mAChR M1 cell-based functional assay (calcium mobilization), agonist mode: compound alone, Emax relative to acetylcholine maximum; conditions: for EC50 / Agonist Activity Human M1 EC50: human mAChR M1; for Emax: relative to the maximum for acetylcholine
Description: as §1, §2
Calcium flux was measured using the Functional Drug Screening System (FDSS) 6000 (Hamamatsu Corporation, Tokyo, Japan) as an increase in the fluorescent static ratio. Compounds were applied to cells (20 μL, 2×) using the automated system of the FDSS 6000 at 4 s into the 300 s protocol and the data were collected at 1 Hz. At 144 s into the 300 s protocol, 10 μL of an EC20 concentration of the muscarinic receptor agonist acetylcholine was added (5×), followed by the addition of 12 μL of an EC80 concentration of acetylcholine at the 230 s time point (5×). Agonist activity was analyzed as a concentration-dependent increase in calcium mobilization upon compound addition. Emax values for agonist activity are expressed relative to the maximum for acetylcholine. Positive allosteric modulator activity was analyzed as a concentration-dependent increase in the EC20 acetylcholine response. Antagonist activity was analyzed as a concentration-dependent decrease in the EC80 acetylcholine response. Concentration-response curves were generated using a four-parameter logistical equation in XLfit curve fitting software (IDBS, Bridgewater, NJ) for Excel (Microsoft, Redmond, WA) or Prism (GraphPad Software, Inc., San Diego, CA).

Row | SMILES | EC50 (human mAChR M1 [1]) [nM] | Emax (human mAChR M1 [1]) [%] | EC50 (human mAChR M1 [2]) [µM] | Emax (human mAChR M1 [2]) [%] | Agonist Activity Human M1 EC50 (human mAChR M1 [2])
1 | [2H]C1([2H])c2ncccc2C(=O)N1Cc1c(F)cc(-c2ccc(OCCOC3CC3)c3nn(C)cc23)cc1F [Compound 150, 6-(4-(7-(2-cyclopropoxyethoxy)-2-methyl-2H-indazol-4-yl)-2,6-difluorobenzyl)-6,7-dihydro-5H-pyrrolo[3,4-b]pyridin-5-one-7,7-d2] | 777 | 80 | ≥ 10 | 22 | 
2 | [2H]C1([2H])c2ncccc2C(=O)N1Cc1ccc(-c2ccc3cn(C)nc3c2)cc1F [Compound 20, 6-(2-fluoro-4-(2-methyl-2H-indazol-6-yl)benzyl)-6,7-dihydro-5H-pyrrolo[3,4-b]pyridin-5-one-7,7-d2] | 3970 | 75 |  | 3 | Inactive
3 | [2H]C([2H])([2H])Oc1ccc(-c2ccc(CN3C(=O)c4cccnc4C3([2H])[2H])c(F)c2)c2cn(C)nc12 [Compound 107, 6-(2-fluoro-4-(7-(methoxy-d3)-2-methyl-2H-indazol-4-yl)benzyl)-6,7-dihydro-5H-pyrrolo[3,4-b]pyridin-5-one-7,7-d2] | 227 | 74 | 5.46 | 16 | 
4 | [2H]C1([2H])c2ncccc2C(=O)N1Cc1c(F)cc(-c2cc3cn(C)nc3cc2F)cc1F [Compound 4, 6-(2,6-difluoro-4-(6-fluoro-2-methyl-2H-indazol-5-yl)benzyl)-6,7-dihydro-5H-pyrrolo[3,4-b]pyridin-5-one-7,7-d2] | 1060 | 48 |  | 2 | Inactive
5 | [2H]C1([2H])c2ncccc2C(=O)N1Cc1c(F)cc(-c2ccc(OC(C)C)c3nn(C)cc23)cc1F [Compound 98, 6-(2,6-difluoro-4-(7-isopropoxy-2-methyl-2H-indazol-4-yl)benzyl)-6,7-dihydro-5H-pyrrolo[3,4-b]pyridin-5-one-7,7-d2] | 286 | 76 | 8.39 | 21 | 
6 | [2H]C1([2H])c2ncccc2C(=O)N1Cc1c(F)cc(-c2ccc(SC)c3nn(C)cc23)cc1F [Compound 181, 6-(2,6-difluoro-4-(2-methyl-7-(methylthio)-2H-indazol-4-yl)benzyl)-6,7-dihydro-5H-pyrrolo[3,4-b]pyridin-5-one-7,7-d2] | 475 | 82 |  | 9 | Inactive
7 | [2H]C1([2H])c2ncccc2C(=O)N1Cc1c(F)cc(-c2cccc3nn(C(F)F)cc23)cc1F [Compound 50, 6-(4-(2-(difluoromethyl)-2H-indazol-4-yl)-2,6-difluorobenzyl)-6,7-dihydro-5H-pyrrolo[3,4-b]pyridin-5-one-7,7-d2] | 332 | 85 |  | 4 | Inactive
8 | [2H]C1([2H])c2ncccc2C(=O)N1Cc1ccc(-c2cc(C)c3nn(C)cc3c2)cc1 [Compound 17, 6-(4-(2,7-dimethyl-2H-indazol-5-yl)benzyl)-6,7-dihydro-5H-pyrrolo[3,4-b]pyridin-5-one-7,7-d2] | 853 | 79 |  | 4 | Inactive
9 | [2H]C1([2H])c2ncccc2C(=O)N1Cc1ccc(-c2ccnc3nn(C)cc23)cc1F [Compound 22, 6-(2-fluoro-4-(2-methyl-2H-pyrazolo[3,4-b]pyridin-4-yl)benzyl)-6,7-dihydro-5H-pyrrolo[3,4-b]pyridin-5-one-7,7-d2] | 1940 | 74 |  | 6 | Inactive

Second part, the compound after the results:

Row | EC50 (human mAChR M1 [1]) [nM] | Emax (human mAChR M1 [1]) [%] | EC50 (human mAChR M1 [2]) [µM] | Emax (human mAChR M1 [2]) [%] | Agonist Activity Human M1 EC50 (human mAChR M1 [2]) | SMILES
10 | 164 | 88 | 5.94 | 25 |  | [2H]C1([2H])c2ncccc2C(=O)N1Cc1c(F)cc(-c2ccc(OCC)c3nn(C([2H])([2H])[2H])cc23)cc1F [Compound 97, 6-(4-(7-ethoxy-2-(methyl-d3)-2H-indazol-4-yl)-2,6-difluorobenzyl)-6,7-dihydro-5H-pyrrolo[3,4-b]pyridin-5-one-7,7-d2]
11 | 1230 | 62 |  | 2 | Inactive | [2H]C1([2H])c2ncccc2C(=O)N1Cc1ccc(-c2ccc3nn(C)cc3c2)cc1 [Compound 12, 6-(4-(2-methyl-2H-indazol-5-yl)benzyl)-6,7-dihydro-5H-pyrrolo[3,4-b]pyridin-5-one-7,7-d2]
12 | > 10000 | 25 |  | 2 | Inactive | [2H]C1([2H])c2ncccc2C(=O)N1Cc1c(F)cc(-c2cc(Cl)cc3c2cnn3C([2H])([2H])[2H])cc1F [Compound 246, 6-(4-(6-chloro-1-(methyl-d3)-1H-indazol-4-yl)-2,6-difluorobenzyl)-6,7-dihydro-5H-pyrrolo[3,4-b]pyridin-5-one-7,7-d2]
13 | 535 | 86 | ≥ 10 | 13 |  | [2H]C1([2H])c2ncccc2C(=O)N1Cc1c(F)cc(-c2ccc(OC3CC3)c3nn(C([2H])([2H])[2H])cc23)cc1F [Compound 183, 6-(4-(7-cyclopropoxy-2-(methyl-d3)-2H-indazol-4-yl)-2,6-difluorobenzyl)-6,7-dihydro-5H-pyrrolo[3,4-b]pyridin-5-one-7,7-d2]
14 | 594 | 86 | 5.46 | 16 |  | [2H]C1([2H])c2ncccc2C(=O)N1Cc1c(F)cc(-c2cc(C)cc3nn(C)cc23)cc1F [Compound 32, 6-(4-(2,6-dimethyl-2H-indazol-4-yl)-2,6-difluorobenzyl)-6,7-dihydro-5H-pyrrolo[3,4-b]pyridin-5-one-7,7-d^2]
